# Reference: patent publication EP4613329A1, “COMPOUND FOR INHIBITING BRD PROTEIN” (Benobio Co., Ltd., priority 2024, dated 2025)
# How the values were obtained:
# BRD2 (BD1) = biological target: T1, BRD2 (BD1) (Homo sapiens, UniProt P25440); test: Binding inhibitory effect on BRD2 protein (AlphaScreen, GST-BRD2 (BD1) / biotinylated acetyl-histone H4 peptide); details: 100 nM GST-BRD2 (BD1), 100 nM biotinylated acetyl-histone H4 (Lys5, 8, 12, 16) peptide
# T1 construct: a bromodomain of BRD2 (BD1) and BRD3 (BD1), one of the BRD protein family
# T1 sequence (P25440 74-180 limits assumed, species assumed): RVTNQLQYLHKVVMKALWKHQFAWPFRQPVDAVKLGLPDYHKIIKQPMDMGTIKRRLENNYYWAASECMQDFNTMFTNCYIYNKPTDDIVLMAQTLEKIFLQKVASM
# BRD3 (BD1) = biological target: T2, BRD3 (BD1) (Homo sapiens, UniProt Q15059); test: Binding inhibitory effect on BRD3 protein (same manner as Experimental Example 1-1)
# T2 construct: a bromodomain of BRD2 (BD1) and BRD3 (BD1), one of the BRD protein family; GST
# T2 sequence (Q15059 34-140 limits assumed, species assumed): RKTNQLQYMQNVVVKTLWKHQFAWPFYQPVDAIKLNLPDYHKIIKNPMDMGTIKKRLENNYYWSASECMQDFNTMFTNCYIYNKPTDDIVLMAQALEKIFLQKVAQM
# [1] = tested on: retinal degeneration mouse model; test: Electroretinogram (ERG) in blue LED-induced retinal degeneration mouse model; assay type: in vivo, albino BALB/c mice; details: compound 24 nM, Com. Ex. 4 25 mg/kg; for Wavelength enhanced multiple compared to normal saline-treated group, Average value: average of a-wave and b-wave, intravitreal; for Wavelength enhanced multiple compared to normal saline-treated group, a-wave / Wavelength enhanced multiple compared to normal saline-treated group, b-wave: single intravitreal injection 1 hour after LED exposure
# Protocol: In order to fabricate a retinal degeneration model, 7-week-old male albino BALB/c mice were used. Three mice were randomly assigned to each test group, and light and dark were maintained at 12-hour intervals. Each mouse was dark-adapted for 24 hours and then the pupils were dilated with 0.5% tropicamide and 0.5% phenylephrine hydrochloride eye drops (Santen, Osaka, Japan) 30 minutes before blue LED exposure. Unanesthetized mice were exposed to 2,000 lux of a blue LED (460 ± 10 nm) for 2 hours in a cage with reflective interiors. The light intensity was measured using an LED photometer (model TM-201L, TENMARS Electronics, Taipei, Taiwan). After exposure to blue LED, the mice were kept in the dark for 24 hours and then resumed on a 12-hour light/dark cycle for 3 days.
# In a test substance control test, mice with retinal degeneration were divided into a normal saline-administered group and a compound-administered group (24 nM) of the present disclosure, and 3 mice were randomly assigned to each test group. A positive control test was divided into a normal saline-administered group and an Eyela (25 mg/kg mouse body weight)-administered group (Comparative Example 4), and three mice were randomly assigned to each test group.
# All test groups were administered as a single dose by intravitreal injection 1 hour after LED exposure.
# That is, mice were stored in a completely dark room for 16 hours before ERG recordings. All animals were anesthetized intraperitoneally with zolazepam (20 mg/kg) and xylazine (7.5 mg/kg). The cornea was coated with hydroxypropyl methylcellulose gel and covered with a gold ring contact electrode. Ground and reference electrodes were disposed subcutaneously on the tail and ears, respectively. Stimuli were short white flashes delivered through a Ganzfeld stimulator (UTAS-3000; LKC Technologies, Gaithersburg, MD, USA). The signal was amplified and filtered through a digital band-pass filter in the range of 5 to 300 Hz to generate a and b waves. Scotopic ERG, and rod-mediated responses were obtained at increasing light intensities of 0.025 and 3.96 cd/s • m^2. Photopic, cone-mediated responses were obtained after 5-min light adaptation to background light intensity. The recordings were obtained at the light intensity of 6.28 cd/s • m^2. Each recording was the average of three responses obtained within a 15-second stimulation interval. A-wave amplitude was measured from a baseline to the maximum a-wave peak, and b-wave amplitude was measured from the maximum a-wave peak to the maximum b-wave peak.
Structure (SMILES),IC50 (BRD2 (BD1)),IC50 (BRD3 (BD1)),"Wavelength enhanced multiple compared to normal saline-treated group, Average value [1]","Wavelength enhanced multiple compared to normal saline-treated group, a-wave [1]","Wavelength enhanced multiple compared to normal saline-treated group, b-wave [1]"
CNC(=O)C1(C)CN(C(=O)c2ccc(-c3ccccc3-c3cccc4c3CN(C)C4=O)o2)CCC1O (stereo not drawn) [Compound 34],15.7 µM,4.68 µM,–,–,–
CNC(=O)C1(Cc2ccccc2)CCN(Cc2ccc(-c3ccccc3-c3cccc4c3CN(C)C4=O)o2)CC1 [Compound 19],13.9 µM,1.4 µM,–,–,–
CN1Cc2c(cccc2-c2ccccc2-c2ccc(CN3CCN(C(C)(C)C(N)=O)CC3)o2)C1=O [Compound 16],15.8 µM,1.75 µM,–,–,–
CN1Cc2c(cccc2-c2ccccc2-c2ccc(CNCCS(C)(=O)=O)o2)C1=O [Compound 9],19.7 µM,3.85 µM,–,–,–
CNC(=O)C1(C)CN(Cc2oc(-c3ccccc3-c3cccc4c3CN(C)C4=O)cc2C)CCC1O (stereo not drawn) [Compound 41],15.5 µM,2.14 µM,–,–,–
"COCNCc1ccc(-c2ccccc2-c2cccc3c2CN(C)C3=O)o1 [Compound 4, 2-methyl-4-(2-(5-((methoxymethylamino)methyl)furan-2-yl)phenyl)isoindoline-1-one]",17.4 µM,4.43 µM,–,–,–
"CNC(=O)C1(Cc2ccc(F)cc2)CCN(Cc2ccc(-c3ccccc3-c3cccc4c3CN(C)C4=O)o2)CC1 [Compound 21, 2-methyl-4-(2-(5-(((4-(4-fluorobenzyl)-4'-carboxamidyl)piperidine)methyl)furan-2-yl)phenyl)isoindoline-1-one]",13.9 µM,1.16 µM,2.30,2.17,2.42
"CNC(=O)C1(Cc2ccc(F)cc2)CCN(C(=O)c2ccc(-c3ccccc3-c3cccc4c3CN(C)C4=O)o2)CC1 [Compound 32, 2-methyl-4-(2-(5-(((4-(4-fluorobenzyl)-4'-carboxamidyl)piperidine)carbonyl)furan-2-yl)phenyl)isoindoline-1-one]",16.8 µM,3.99 µM,–,–,–
"CN1Cc2c(cccc2-c2ccccc2-c2ccc(CN3CCC4(CC3)C(=O)N(C)CC4c3ccc(F)cc3)o2)C1=O (stereo not drawn) [Compound 23, 2-methyl-4-(2-(5-(((4-(4-fluorophenyl)-2-methyl)-2λ^2,8-diazaspiro[4,5]decan-1-one)methyl)furan-2-yl)phenyl)isoindoline-1-one]",15.3 µM,1.3 µM,–,–,–
CNC(=O)CC1C(=O)NCCN1Cc1ccc(-c2ccccc2-c2cccc3c2CN(C)C3=O)o1 (stereo not drawn) [Compound 26],13 µM,1.38 µM,–,–,–
"CNC(=O)CC1C(=O)NCCN1Cc1oc(-c2ccccc2-c2cccc3c2CN(C)C3=O)cc1C (stereo not drawn) [Compound 42, 2-methyl-4-(2-(5-(3-methyl(N-methyl-2-(3-oxopiperazine-2yl)acetamidyl)methyl)furan-2-yl)phenyl)isoindoline-1-one]",10.9 µM,3.77 µM,1.32,1.25,1.38
"CN1CCN(CCNCc2ccc(-c3ccccc3-c3cccc4c3CN(C)C4=O)o2)CC1 [Compound 10, 2-methyl-4-(2-(5-(((2-(4-methylpiperazine-1-yl)ethyl)amino)methyl)furan-2-yl)phenyl)isoindoline-1-one]",11.4 µM,3.89 µM,–,–,–
CCC1(C(=O)NC)CCCN(C(=O)c2ccc(-c3ccccc3-c3cccc4c3CN(C)C4=O)o2)C1 (stereo not drawn) [Compound 36],14.5 µM,4.26 µM,–,–,–
"CC(C)NCc1ccc(-c2ccccc2-c2cccc3c2CN(C)C3=O)o1 [Compound 8, 2-methyl-4-(2-(5-((isopropylamino)methyl)furan-2-yl)phenyl)isoindoline-1-one]",–,2.2 µM,–,–,–
CN1Cc2c(cccc2-c2ccccc2-c2ccc(CN3CCC(Cc4ccc(F)cc4)(C(=O)NCc4ccccc4)CC3)o2)C1=O [Compound 20],16.7 µM,3.72 µM,–,–,–
CN1Cc2c(cccc2-c2ccccc2-c2ccc(CN3CCN(S(C)(=O)=O)CC3)o2)C1=O [Compound 11],16.6 µM,3.71 µM,–,–,–

Structure (SMILES),IC50 (BRD2 (BD1)),IC50 (BRD3 (BD1)),"Wavelength enhanced multiple compared to normal saline-treated group, Average value [1]","Wavelength enhanced multiple compared to normal saline-treated group, a-wave [1]","Wavelength enhanced multiple compared to normal saline-treated group, b-wave [1]"
"CN1Cc2c(cccc2-c2ccccc2-c2ccc(CN3CCCCC3)o2)C1=O [Compound 12, 2-methyl-4-(2-(5-(piperidine-1-ylmethyl)furan-2-yl)phenyl)isoindoline-1-one]",14.5 µM,2.99 µM,–,–,–
"CN1Cc2c(cccc2-c2ccccc2-c2ccc(CN3CCC(N(C)C)CC3)o2)C1=O [Compound 15, 2-methyl-4-(2-(5-((4-(dimethylamino)piperidine-1-yl)methyl)furan-2-yl)phenyl)isoindoline-1-one]",15.8 µM,2.56 µM,–,–,–
C#CCN(C)Cc1ccc(-c2ccccc2-c2cccc3c2CN(C)C3=O)o1 [Compound 6],15.8 µM,2.61 µM,–,–,–
"CCCNCc1ccc(-c2ccccc2-c2cccc3c2CN(C)C3=O)o1 [Compound 3, 2-methyl-4-(2-(5-((propylamino)methyl)furan-2-yl)phenyl)isoindoline-1-one]",14.1 µM,4.51 µM,–,–,–
CCC1(C(=O)NC)CCCN(Cc2ccc(-c3ccccc3-c3cccc4c3CN(C)C4=O)o2)C1 (stereo not drawn) [Compound 24],15.2 µM,1.67 µM,–,–,–
"CN(C)CCNCc1ccc(-c2ccccc2-c2cccc3c2CN(C)C3=O)o1 [Compound 5, 2-methyl-4-(2-(5-((dimethylaminoethylamino)methyl)furan-2-yl)phenyl)isoindoline-1-one]",12.4 µM,2.36 µM,–,–,–
"CN1Cc2c(cccc2-c2ccccc2-c2ccc(CN3CCC4(CC3)C(=O)NCC4c3ccc(F)cc3)o2)C1=O (stereo not drawn) [Compound 22, 2-methyl-4-(2-(5-((4-(4-fluorophenyl)-2λ^2,8-diazaspiro[4,5]decan-1-one)methyl)furan-2-yl)phenyl)isoindoline-1-one]",13.7 µM,1.19 µM,–,–,–
"CN1Cc2c(cccc2-c2ccccc2-c2ccc(CN3CCC(Cc4ccncc4)(C(N)=O)CC3)o2)C1=O [Compound 31, 2-methyl-4-(2-(5-(((4-pyridinylmethyl-4'-carboxamidyl)piperidine)methyl)furan-2-yl)phenyl)isoindoline-1-one]",15 µM,2.78 µM,–,–,–
"CNCc1ccc(-c2ccccc2-c2cccc3c2CN(C)C3=O)o1 [Compound 1, 2-methyl-4-(2-(5-((methylamino)methyl)furan-2-yl)phenyl)isoindoline-1-one]",16.9 µM,1.39 µM,–,–,–
"CN1Cc2c(cccc2-c2ccccc2-c2ccc(CN3CCC(Cc4ccccc4)(C(N)=O)CC3)o2)C1=O [Compound 29, 2-methyl-4-(2-(5-(((4-benzyl-4'-carboxamidyl)piperidine)methyl)furan-2-yl)phenyl)isoindoline-1-one]",14.6 µM,4.86 µM,–,–,–
"CCNCc1ccc(-c2ccccc2-c2cccc3c2CN(C)C3=O)o1 [Compound 2, 2-methyl-4-(2-(5-((ethylamino)methyl)furan-2-yl)phenyl)isoindoline-1-one]",16.8 µM,1.26 µM,–,–,–
"CN1Cc2c(cccc2-c2ccccc2-c2ccc(CNC3CCCC3)o2)C1=O [Compound 7, 2-methyl-4-(2-(5-((cyclopentylamino)methyl)furan-2-yl)phenyl)isoindoline-1-one]",18.2 µM,4.35 µM,–,–,–
CNCc1oc(-c2ccccc2-c2cccc3c2CN(C)C3=O)cc1C [Compound 38],12.5 µM,1.12 µM,–,–,–
"CN1Cc2c(cccc2-c2ccccc2-c2ccc(CN3CCN(c4cccc(F)c4)CC3)o2)C1=O [Compound 14, 2-methyl-4-(2-(5-(((4-(3-fluorophenyl)piperazine-1-yl)methyl))furan-2-yl)phenyl)isoindoline-1-one]",13.3 µM,2.4 µM,–,–,–
"CNC(=O)c1ccc(-c2ccccc2-c2cccc3c2CN(C)C3=O)o1 [Compound 33, 2-methyl-4-(2-(5-((methylamino)carbonyl)furan-2-yl)phenyl)isoindoline-1-one]",11.1 µM,2.39 µM,–,–,–
"CN1Cc2c(cccc2-c2ccccc2-c2ccc(CNCc3ccccc3)o2)C1=O [Compound 17, 2-methyl-4-(2-(5-((benzylamino)methyl)furan-2-yl)phenyl)isoindoline-1-one]",14 µM,3.61 µM,–,–,–
